Assay results from patent publication US4797488A, “Psychotropic polycyclic imides” (American Home Products Corporation, priority 1987, dated 1989).
Like-named read-outs stand apart in the source and are kept apart here.

How the values were obtained:
[1] = biological target: T1, 5-HT1A serotonin receptor (Rattus norvegicus, UniProt P19327); assay: Inhibition of [3H] 8-OH DPAT binding; details: for inhibition at 1 µM / Ki: 5-HT1A
T1 construct: 44: 1685-1696, 1985; from tissue
T1 sequence (P19327 1-422): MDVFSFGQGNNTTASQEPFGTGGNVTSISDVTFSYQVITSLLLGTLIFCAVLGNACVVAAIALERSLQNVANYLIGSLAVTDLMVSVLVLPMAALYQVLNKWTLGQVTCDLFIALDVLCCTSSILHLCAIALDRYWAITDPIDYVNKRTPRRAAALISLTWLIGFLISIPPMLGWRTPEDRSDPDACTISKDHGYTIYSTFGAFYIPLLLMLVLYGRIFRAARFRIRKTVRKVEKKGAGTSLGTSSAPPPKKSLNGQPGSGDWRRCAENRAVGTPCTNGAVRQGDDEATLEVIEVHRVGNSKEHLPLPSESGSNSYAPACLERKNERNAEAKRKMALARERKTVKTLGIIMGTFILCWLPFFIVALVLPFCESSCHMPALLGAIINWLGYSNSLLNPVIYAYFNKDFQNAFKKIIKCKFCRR
Description: 8-OH DPAT (dipropylaminotetralin) from the 5-HT1A serotonin receptor by the procedure of Hall et al., J. Neurochem.

[2] = system: apomorphine-induced stereotyped behavior and climbing; assay: Antagonism of apomorphine-induced stereotyped behavior and climbing; assay type: in vivo, CF-1 mice (Charles River); details: mice; for Apomorphine antagonism ED50, climbing / Apomorphine antagonism ED50, stereotypy / ED50: head: p.o. (text: i.p.), apomorphine 1 mg/kg s.c.; for ED50: Mus musculus; for Ratio of the ED50 for stereotyped behavior to the ED50 for climbing: apomorphine-induced stereotypy/climbing
[3] = system: conditioned avoidance responding; assay: Conditioned avoidance, shelf-jump response test; assay type: in vivo, male CD rats (Charles River); details: ip, single dose, rat
Description: (§1) The antipsychotic properties of the compounds of this invention were established by standard pharmacologically accepted procedures involving conditioned avoidance studies in which trained male CD rats (Charles River), 400-450 g. body weight are exposed to a fifteen second warning tone (conditioned stimulus) continued for an additional fifteen seconds accompanied by electric shock. The rat can avoid the electric shock by jumping to an exposed shelf (shelf-jump response). A response during the initial warning tone is considered an avoidance response, while a response during shock delivery is considered as escape response. The shelf-jump response test procedure follows that of Herman et al., Comm. in Psychopharm., 3, pp. 165-171 (1979). The compounds of this invention were tested at a single dose (40 mg./kg. i.p.) in this procedure and were rated relative to their inhibition of conditioned avoidance responding. A similar test procedure in which a lever press was substituted for a shelf-jump was used to establish the oral (p.o) activity of the test compounds. Orally active compounds were tested over a full dose range and the Avoidance Block activities reported as "AB50 's" (mg./kg.).

[4] = system: conditioned avoidance responding; assay: Conditioned avoidance, discrete trial (lever press), oral; assay type: in vivo, rat; details: for Conditioned avoidance, discrete trial AB50 (Avoidance Block): p.o.; for ED50: Rattus norvegicus, po, read-out: Conditioned avoidance, discrete trial AB50 (Avoidance Block)
Description: as §1

[5] = biological target: T2, D-2 dopamine receptor (Rattus norvegicus, UniProt P61169); assay: [3H]Spiroperidol binding inhibition, homogenized limbic brain tissue
T2 construct: from tissue; host or cells: limbic brain tissue
T2 sequence (P61169 whole entry): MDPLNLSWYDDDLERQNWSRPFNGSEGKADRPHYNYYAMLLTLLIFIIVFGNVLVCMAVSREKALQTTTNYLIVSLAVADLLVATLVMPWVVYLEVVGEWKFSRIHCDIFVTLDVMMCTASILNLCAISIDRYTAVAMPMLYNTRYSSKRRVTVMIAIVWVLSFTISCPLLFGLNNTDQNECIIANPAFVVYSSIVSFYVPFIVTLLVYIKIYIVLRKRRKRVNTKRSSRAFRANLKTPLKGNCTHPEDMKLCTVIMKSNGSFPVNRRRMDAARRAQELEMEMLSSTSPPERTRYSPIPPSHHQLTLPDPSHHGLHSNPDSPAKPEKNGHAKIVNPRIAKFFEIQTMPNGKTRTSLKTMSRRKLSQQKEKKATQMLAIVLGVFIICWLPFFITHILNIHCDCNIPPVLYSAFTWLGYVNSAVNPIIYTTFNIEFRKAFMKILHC
Description: The results of this testing with compounds representative of the invention whose production is exemplified,infra, are as follows: […]

[6] = read-out: Apomorphine antagonism ED50, climbing
[7] = read-out: Apomorphine antagonism ED50, stereotypy

Compound	inhibition at 1 µM [1] [%]	Apomorphine antagonism ED50, climbing [2]	Apomorphine antagonism ED50, stereotypy [2]	inhibition in vivo at 40 mg/kg [3] [%]	Conditioned avoidance, discrete trial AB50 (Avoidance Block) [4]	inhibition at 1 µM [5] [%]	Ki [1] [nM]	ED50 [2, 6] [mg/kg]	ED50 [2, 7] [mg/kg]	ED50 [4] [mg/kg]	Ratio of the ED50 for stereotyped behavior to the ED50 for climbing [2]	Ki [5] [nM]	Affinity for 5-HT1A serotonin receptor (in words) ([1]; [3H] 8-OH DPAT displacement)
O=C1C2CC(C(=O)N1CCCCN1CCN(c3ncccn3)CC1)c1ccccc12 [Example 8, 2,3,4,5-Tetrahydro-3-[4-[4-(2-pyrimidinyl)-1-piperazinyl]butyl]-1,5-methano-1H-3-benzazepine-2,4(3H, 5H)-dione]	89	inactive	inactive	> 20	inactive	23	–	–	–	–	–	–	–
O=C1C2CC(C(=O)N1CCCCN1CCN(c3cccc(C(F)(F)F)c3)CC1)C1CCCC21 (centres unmarked) [Example 11, Hexahydro-3-[4-[4-(3-trifluoromethylphenyl)-1-piperazinyl]butyl]-1,5-methano-cyclopent[d]azepine-2,4(1H, 3H)-dione]	–	–	–	> 20	–	100	2	18.9	42.4	46.2	–	–	–
O=C(CCCN1CCC(O)(c2ccc(Cl)cc2)CC1)c1ccc(F)cc1 [haloperidol, reference compound]	–	–	–	–	–	–	–	–	–	–	1.00	–	–
O=C1C2CC(C(=O)N1CCCCN1CCN(c3cnccn3)CC1)C1C2C2C3CC4C2C4C31 (centres unmarked) [Example 13, Decahydro-3-[4-[4-(2-pyrazinyl)-1-piperazinyl]butyl]-1,5-methano-6,7,9-metheno-2H-pentaleno[1,2-d]azepine-2,4(3H)-dione]	–	–	–	~80	–	51	4	5.44	32.3	40.2	–	–	–
O=C1C2CC(C(=O)N1CCCCN1CCN(c3ccc4ccccc4n3)CC1)C1C2C2C3CC4C2C4C31 (centres unmarked) [Example 14, Decahydro-3-[4-[4-(2-quinolyl)-1-piperazinyl]butyl]-1,5-methano-6,7,9-methano-2H-pentaleno[1,2-d]azepine-2,4(3H)-dione]	86	–	inactive	~20	–	45	–	44	–	–	–	–	–
O=C1C2CC(C(=O)N1CCCCN1CCN(c3ncccn3)CC1)C1CCCC21 (centres unmarked) [Example 1, Hexahydro-3-[4-[4-(2-pyrimidinyl)-1-piperazinyl]butyl]-1,5-methanocyclopent[d]azepine-2,4(1H,3H)-dione]	–	–	inactive	> 20	–	54	3	4.08	–	40.1	–	–	–
O=C1C2CC(C(=O)N1CCCCN1CCN(c3ncccn3)CC1)C1C3CCC(C3)C21 (centres unmarked) [Example 15, Octahydro-3-[4-[4-(2-pyrimidinyl)-1-piperazinyl]butyl]-2H-1,5:6,9-dimethano-2H-3-benzazepine-2,4(3H)-dione]	–	–	–	> 20	inactive	–	0.5	14.3	2.54	–	–	174	–
O=C1C2CC(C(=O)N1CCCCN1CCN(c3cncc(Cl)n3)CC1)C1CC=CC21 (centres unmarked) [Example 5, 5,5a,8,8a-Tetrahydro-3-[4-[4-(6-chloro-2-pyrazinyl)-1-piperazinyl]butyl]-1,5-methanocyclopent[d]azepine-2,4(1H,3H)-dione]	–	–	inactive	> 20	active	25	60	47.2	–	–	–	–	–
COc1ccccc1N1CCN(CCCCN2C(=O)C3CC(C2=O)C2C3C3C4CC5C3C5C42)CC1 (centres unmarked) [Example 10, Decahydro-3-[4-[4-(2-methoxyphenyl)-1-piperazinyl]butyl]-1,5-methano-6,7,9-metheno-2H-pentaleno[1,2-d]azepine-2,4(3H)-dione]	–	–	–	> 20	inactive	–	0.29	4.71	10	–	–	18	–
O=C1C2CC(C(=O)N1CCCCN1CCN(c3cccc(C(F)(F)F)c3)CC1)C1C2C2C3CC4C2C4C31 (centres unmarked) [Example 12, Decahydro-3-[4-[4-(3-trifluoromethylphenyl)-1-piperazinyl]butyl]-1,5-methano-6,7,9-metheno-2H-pentaleno[1,2-d]azepine-2,4(3H)-dione]	–	inactive	inactive	< 20	–	–	0.2	–	–	–	–	30	–
O=C1C2CC(C(=O)N1CCCCN1CCN(c3cncc(Cl)n3)CC1)C1CCCC21 (centres unmarked) [Example 2, Hexahydro-3-[4-[4-(6-chloro-2-pyrazinyl)-1-piperazinyl]butyl]-1,5-methanocyclopent[d]azepine-2,4(1H,3H)-dione]	–	–	inactive	> 20	inactive	20	31	24.2	–	–	–	–	–
O=C1C2CC(C(=O)N1CCCCN1CCN(c3cnccn3)CC1)C1CCCC21 (centres unmarked) [Example 3, Hexahydro-3-[4-[4-(2-pyrazinyl)-1-piperazinyl]butyl]-1,5-methanocyclopent[d]azepine-2,4(1H,3H)-dione]	–	–	–	~80	inactive	23	41	4.91	30.9	–	–	–	–
CN(C)CCCN1c2ccccc2Sc2ccc(Cl)cc21 [chlorpromazine, reference compound]	–	–	–	–	–	–	–	–	–	–	1.51	–	–
O=C1CC2(CCCC2)CC(=O)N1CCCCN1CCN(c2ncccn2)CC1 [buspirone, reference compound]	–	–	–	–	–	–	–	–	–	–	–	–	potent affinity
O=C1C2CC(C(=O)N1CCCCN1CCN(c3ncccn3)CC1)C1C2C2C3CC4C2C4C31 (centres unmarked) [Example 6, Decahydro-3-[4-[4-(2-pyrimidinyl)-1-piperazinyl]butyl]-1,5-methano-6,7,9-metheno-2H-pentaleno[1,2-d]azepine-2,4(3H)-dione]	–	–	inactive	~80	–	–	0.23	0.4	–	33.8	–	56	–
O=C1C2CC(C(=O)N1CCCCN1CCN(c3cncc(Cl)n3)CC1)c1ccccc12 [Example 9, 2,3,4,5-Tetrahydro-3-[4-[4-(6-chloro-2-pyrazinyl)-1-piperazinyl]butyl]-1,5-methano-1H-3-benzazepine-2,4(3H, 5H)-dione]	61	–	inactive	> 20	–	0	–	–	–	–	–	–	–
O=C1C2CC(C(=O)N1CCCCN1CCN(c3ncccn3)CC1)C1CC=CC21 (centres unmarked) [Example 4, 5,5a,8,8a-Tetrahydro-3-[4-[4-(2-pyrimidinyl)-1-piperazinyl]butyl]1,5-methanocyclopent[d]azepine-2,4(1H,3H)-dione]	–	–	inactive	~80	weak	59	3.5	5.5	–	–	–	–	–
O=C1C2CC(C(=O)N1CCCCN1CCN(c3cncc(Cl)n3)CC1)C1C2C2C3CC4C2C4C31 (centres unmarked) [Example 7, Decahydro-3-[4-[4-(6-chloro-2-pyrazinyl)-1-piperazinyl]butyl]-1,5-methano-6,7,9-metheno-2H-pentaleno[1,2-d]azepine-2,4(3H)-dione]	–	inactive	inactive	> 20	inactive	54	6.95	–	–	–	–	–	–
